This note sets out measurements from patent US10039756B2, “Reducing memory loss in mammals suffering from alzheimer's disease” (The Penn State Research Foundation, priority 2013, dated 2018).

For one test, the system named is 5xFAD mice. Description: Y-maze spontaneous alternation task. It counts as in vivo, mouse. Particulars: 50 μmol kg-1, i.p., once per day for one week, p<0.05. As for the experimental part:
L-655,708 was dissolved at 1 mg/mL in DMSO, and frozen in storage aliquots. The working solution was diluted 10 times in normal saline solution. […] The last injection was administrated 30 minutes before behavioral test.
Spontaneous alternation performance was tested as described elsewhere (Oakley et al., J. Neurosci., 26(40):10129-10140 (2006)). […] It allows the assessment of hippocampus-dependent spatial working memory. Each mouse was placed in the center of a symmetrical Y-maze and was allowed to explore freely through the maze during an 8 minute session. The first two minutes were not included for data analysis because mice were exploring new environment. The total number and the sequence of arm entries in the last 6 minutes were recorded and analyzed. Arm entry was defined as the hind paws of the mice had been completely placed in the arm. Analysis was done blind. The percentage of alternation is the number of triads containing entries into all three arms divided by the maximum possible alternations (the total number of arms entered minus 2)×100.
A behavioral analysis was conducted to test the effect of enhanced tonic inhibition on the cognitive function of 5xFAD animals. […] Therefore, it was concluded that the abnormal tonic inhibition in DG is an important contributing factor toward the learning and memory deficit in AD.

The target of another test is T1, GAT-3 (Mus musculus, UniProt P31650).
T1 construct: from tissue; host or cells: mouse hippocampal slices (5xFAD and WT littermates), dentate gyrus
T1 sequence (P31650 1-627): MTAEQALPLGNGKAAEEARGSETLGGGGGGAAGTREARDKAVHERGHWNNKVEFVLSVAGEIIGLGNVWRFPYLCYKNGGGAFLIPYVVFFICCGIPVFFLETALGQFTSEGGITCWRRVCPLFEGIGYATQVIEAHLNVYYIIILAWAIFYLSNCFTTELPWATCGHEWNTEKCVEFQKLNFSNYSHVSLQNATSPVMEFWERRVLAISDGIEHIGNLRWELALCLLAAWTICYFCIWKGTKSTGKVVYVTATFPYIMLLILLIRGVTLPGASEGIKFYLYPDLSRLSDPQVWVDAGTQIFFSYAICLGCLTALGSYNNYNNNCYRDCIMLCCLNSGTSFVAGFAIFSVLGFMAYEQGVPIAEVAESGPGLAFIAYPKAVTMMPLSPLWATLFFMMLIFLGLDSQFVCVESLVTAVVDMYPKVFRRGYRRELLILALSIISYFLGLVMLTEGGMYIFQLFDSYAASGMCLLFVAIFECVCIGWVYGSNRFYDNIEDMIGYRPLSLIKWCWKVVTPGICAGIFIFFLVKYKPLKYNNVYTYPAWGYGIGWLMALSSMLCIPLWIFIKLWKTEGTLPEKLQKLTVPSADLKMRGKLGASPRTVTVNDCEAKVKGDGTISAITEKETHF
Description: Tonic GABA current, whole-cell patch clamp in dentate granule cells of hippocampal slices, GAT-3 block. It is filed as cell-based. The conditions noted are these: 50 μM; AD (5xFAD) dentate granule cells. As for the experimental part: Mice were anesthetized with 2.5% Avertin. After decapitation, brains were rapidly dissected out and placed in ice-cold cutting solution containing: 79 mM NaCl, 80 mM sucrose, 26 mM NaHCO3, 10 mM glucose, 2.5 mM KCl, 1.25 mM NaH2PO4, 7 mM MgSO4, and 0.5 mM CaCl2 for tonic current recordings. The cutting solution for field EPSP recordings contained: 230 mM sucrose, 26 mM NaHCO3, 20 mM glucose, 2.5 mM KCl, 1.25 mM NaH2PO4, 10 mM MgSO4, and 0.5 mM CaCl2. Both solutions were bubbled with 95% O2/5% CO2. […]
Whole-cell voltage clamp recordings were performed on dentate gyrus granule cells using a pipette solution containing: 135 mM CsCl, 5 mM Na-phosphocreatine, 10 mM HEPES, 5 mM EGTA, 4 mM MgATP, 5 mM QX-314, and 0.5 mM Na2GTP (pH 7.3 adjusted with CsOH, 280-290 mOsm/L). […] Data was acquired using pClamp 9 software (Molecular Devices; sampled at 10 kHz and filtered at 1 kHz), and analyzed with Clampfit 9.0 software (Molecular Devices). Field excitatory postsynaptic potentials (fEPSPs) were recorded with glass electrodes filled with 1 M NaCl and 25 mM HEPES (pH 7.3), and were evoked every 20 seconds with a parallel bipolar tungsten electrode (MicroProbes, USA), which was placed at medial perforant path in the dentate gyrus. […]

The structures appear in SMILES notation.

For `COc1ccc(C(OCCN2CCC[C@H](C(=O)O)C2)(c2ccc(OC)cc2)c2ccc(OC)cc2)cc1` [SNAP-5114, (S)-1-[2-[tris(4-methoxyphenyl)methoxy]ethyl]-3-piperidinecarboxylic acid], the “effect on memory deficit (spontaneous alternation)” value with 5xFAD mice is “rescued the memory deficit”. Besides, at GAT-3, the “block of tonic GABA current” value was “blocked the majority of the tonic GABA current”.
